# Laboratory results from US20230203126A1, “A COMPOSITION COMPRISING S-ARRESTIN PEPTIDES” (WORG PHARMACEUTICALS (HANGZHOU) CO., LTD., priority 2019, published 2023).
# No end group written: not given here.
# Key:
# [1] = tested on: S-Ag-induced cell activation (IFNy production of LN cells and splenocytes); assay: Ex vivo tolerization experiment (DR2tg mice); type: in vivo
# Experimental: FIG. 4: 9K1K alone induces tolerance towards S-Ag protein in DR2tg mice. Mice were injected subcutaneously in the flank with 0,1 µg/ml, 1 µg/ml and 10 µg/ml 9K1K on days -15, -13 and -11, followed by 3 injections of 100 µg/ml on days -8, -6 and -4 (escalating dose regime). On day 0, mice were immunized subcutaneously at the base of the tail with antigen/CFA. Mice were sacrificed 10 days after immunization to measure activation of LN cells and splenocytes upon S-Ag restimulation. IFNy concentration was measured in the culture supernatant as an indication of cell activation. Data represent mean ± SEM of the concentration of IFNy for the PBS-treated mice (black lines) and 9K1K-treated mice (grey lines). Two-way ANOVA was used to measure overall treatment effects on T cell activation. Dunnett’s multiple comparisons test was used and significant differences are indicated in the graphs (** p<0.01; **** p<0.0001). The % inhibition of IFNy production as compared to the control group is indicated in the graphs. (A) Tolerization against S-Ag in LN. IFNy production expressed as IFNy concentration (pg/ml). (B) Tolerization against S-Ag in spleen. IFNy production expressed as IFN-Y concentration (pg/ml). LN, lymph nodes. Data representative of 3 independent experiments.
# FIG. 8: Treatment with peptide cocktail ATX975 reduces S-Ag-induced immune cell activation in DR2tg mice more efficiently than treatment with 9K1K alone. Mice were injected subcutaneously in the flank with 0.015 nmol, 0.15 nmol and 1.5 nmol of peptide on days -15, -13 and -11 respectively, followed by 3 injections of 15 nmol peptide on days -8, -6 and -4 (dose escalation schedule). For treatment with the cocktail (ATX975) containing 3 peptides, these doses were given per peptide (reaching a total top dose of 45 nmol peptide). On day 0, mice were immunized subcutaneously at the base of the tail with antigen/CFA. Mice were sacrificed 10 days after immunization to measure activation of splenocytes upon S-Ag restimulation. […] IFN-y production expressed as IFN-y concentration (pg/ml). […]
# [2] = tested on: MHC II molecules on dendritic cells (CD11c+ cells); assay: In vivo MHC class II loading assay (DR2tg mice); design: species or system HLA-DR2-transgenic mice; details: 100 µg peptide s.c., spleen 2 h post injection, 72 h co-culture, vs PBS-injected control
# Experimental: FIG. 1: Peptide 9K1K is correctly loaded on MHC class II in vivo. Response of peptide-specific CD4+ T cells towards peptide loaded in vivo on dendritic cells is shown. HLA-DR2-transgenic mice were injected subcutaneously with 100 µg of 9K1K peptide. 2 h post injection, spleens were dissected and CD11 c+ cells (dendritic cells) were isolated. These CD11c+ cells were co-cultured with peptide-specific CD4+ cells for 72 h at 37° C. IFNy was measured in the supernatant of these cultures to evaluate the response to peptide by the CD4+ T cells. (* p<0.05 Mann-Whitney U-test)
# When 100 µg of peptide 9K1K was injected in DR2tg mice or when peptide 17JK or 15N3K was injected in DR3tg mice, these peptides could be detected on dendritic cells (CD11c+ cells) in the spleens of these mice 2 h post injection. Activation (IFNY production) of peptide-specific CD4+ T cells by the isolated CD11 c+ cells was used as a read-out. […]
# DR3tg or DR2tg mice were injected with 100 µg of peptide in 100 µl PBS subcutaneously (s.c.) in the flank. […] After 72 hours, supernatant of these co-cultures was collected and CD4+ T cell activation was analysed by IFNy ELISA (R&D Systems, Abingdon, UK). In a parallel experiment, CD4+ T cell responses towards peptide added in vitro were assessed to make sure the T cells recognize the peptides presented by the CD11 c+ cells.
# [3] = target: HLA-DRA1*0101, DRB1*1501 (DR2) (Homo sapiens, UniProt P01903+P01911); assay: DR2
# Experimental: Table printed on a drawing sheet, Figure 9
# The patent's description of the figure: FIG. 9: Diverse patterns of in vitro peptide-MHC II binding for peptides 9K1, 17JK and 15N3K. Binding of peptides 9K1, 17JK and 15N3K to recombinant HLA-DRA1*0101, DRB1*0101 (DR1), DRB1*1501 (DR2), DRB1*0301 (DR3), DRB1*0401 (DR4), DRB1*1101 (DR11), DRB1*0405 (DR4*05) and DRB1*0901 (DR9) was assessed in vitro. IC50 values (µM) are presented and colour-coded per HLA-DR molecule. Low values (green) indicate strong binding, high values (red) indicate low(er) binding.
# FIG. 9 depicts IC50 (µM) values of peptides 9K1K, 17JK and 15N3K binding to the indicated HLA-DR molecules and competing with a known competitor peptide. Values should be compared only within each HLA-DR molecule. Low IC50 values (green) indicate the strongest binder per HLA-DR molecule. Highest values per HLA-DR molecule (red) are indicative of the lowest binder for that HLA-DR molecule. Intermediate values are indicated in orange. […]
# First copying reader's note: The sheet prints no unit; per the patent description the values are IC50 (µM) for peptide binding to the named HLA-DR molecules, with cell shading coding relative binding strength per HLA-DR molecule.
# Where the first naming reader finds the target: description_of_the_figure: recombinant HLA-DRA1*0101, DRB1*0101 (DR1), DRB1*1501 (DR2)
substance,measurement,setting,value
"KKKAFVEQVANVVLKKK-NH2 [9K1K, KKKAFVEQVANVVLKKK]",reduction of S-Ag-induced cell activation (IFNy) in spleens,"[1]; dose escalation to 15 nmol per peptide s.c., cocktail vs single peptide, vs control mice (FIG. 8)",51%
same,reduction of S-Ag-induced cell activation (IFNy) in lymph nodes,"[1]; single peptide escalating dose s.c., vs PBS, 10 days after immunization (FIG. 4A)",77%
same,reduction of S-Ag-induced cell activation (IFNy) in spleen,"[1]; single peptide escalating dose s.c., vs PBS, 10 days after immunization (FIG. 4B)",70%
same,CD4+ T cell activation (IFNy) by CD11c+ cells isolated from spleen of injected mice,[2],significant CD4+ T cell activation
same,IC50,[3],520 nM
